Like-named read-outs stand apart in the source and are kept apart here.
Experiments:
[1] = molecular target: T1, hGIPR (Homo sapiens, UniProt P48546); test: hGIPR CreLuc assay in 0.5% and 100% plasma (CHO CRE-luciferase reporter cells); type: cell-based
T1 construct: expressed in transfected cells; host or cells: CHO CRE-luciferase reporter cells
T1 sequence (P48546 22-466): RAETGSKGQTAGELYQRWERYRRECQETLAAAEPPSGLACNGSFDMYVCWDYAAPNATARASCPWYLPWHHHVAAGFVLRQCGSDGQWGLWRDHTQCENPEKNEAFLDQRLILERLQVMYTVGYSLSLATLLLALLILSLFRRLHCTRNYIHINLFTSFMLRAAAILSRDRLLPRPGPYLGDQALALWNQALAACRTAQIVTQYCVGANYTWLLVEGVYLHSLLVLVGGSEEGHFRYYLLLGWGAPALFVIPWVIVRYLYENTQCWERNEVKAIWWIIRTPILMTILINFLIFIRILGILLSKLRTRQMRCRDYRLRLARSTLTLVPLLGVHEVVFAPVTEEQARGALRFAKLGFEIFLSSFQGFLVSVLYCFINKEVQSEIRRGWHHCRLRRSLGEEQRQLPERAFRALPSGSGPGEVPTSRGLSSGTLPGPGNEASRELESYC
Source text: CHO and HEK-293 recombinant cell lines express a luciferase reporter gene under control of the CAMP responsive element (CRE). As a second recombinant protein the GLP-1 and NPY2 receptors were expressed in the reporter gene HEK cells, and the GIP receptor was expressed in the reporter gene CHO cells, respectively. Stimulation of these recombinant cells with an agonist leads to an increase of intracellular CAMP levels. In the presence of CAMP, the transcription factor CRE binding protein (CREB) binds to the CRE and to the CREB binding protein (CBP), which leads to transcription of the luciferase reporter gene. Peptides upon serial-dilution in 100% DMSO were transferred into 384-well assay plates with 5 μl pre-dispensed assay buffer (1×HBSS, 20 mM HEPES, pH7.4 supplemented with 0.5% human plasma) using acoustic dispensing on a Labcyte ECHO. Cryo-preserved transgenic reporter gene cells were thawed in assay buffer. 20 μl (10.000 cells/well) were added to the plate with the peptides and incubated for 4 hours at 37° C. in a humidified incubator. Following incubation, assay plates are equilibrated to room temperature, followed by addition of 25 μl of Bright-Glo™ Luciferase reagent, incubation at room temperature for 10 minutes and analysis of luminescence (Envision Reader). […] EC50 values were calculated by non-linear regression using sigmoid concentration-response with variable slope.
The same assays were run in the presence of 100% plasma with no additional buffer constituents.

[2] = Solubility in 0.1 M phosphate buffer at pH 7; type: physicochemical; conditions: 0.1 M phosphate buffer at pH 7, 10 mg/mL final peptide concentration, shaking 2 hours at room temperature, peptides as TFA-salts, measured sample pH 6.5-7.0
[3] = 0.5% human plasma, read-out: hGIPR 0.5% hP
[4] = 100% human plasma, read-out: hGIPR 100% hP

Compound	EC50 [1, 3] [pM]	solubility at 2 h [2] [µg/mL]	EC50 [1, 4] [pM]	solubility ([2]; read-out: Solubility) [µg/mL]
CC[C@H](C)[C@H](NC(=O)[C@H](CC(C)C)NC(=O)[C@H](Cc1c[nH]cn1)NC(=O)[C@H](CCCNC(=N)N)NC(=O)[C@@H](NC(=O)[C@H](Cc1ccccc1)NC(=O)[C@H](C)NC(=O)C(C)(C)NC(=O)[C@H](CCC(N)=O)NC(=O)[C@H](C)NC(=O)[C@H](CCC(N)=O)NC(=O)[C@H](CC(N)=O)NC(=O)[C@H](CCC(=O)O)NC(=O)[C@H](CC(C)C)NC(=O)C(C)(C)NC(=O)[C@@H](NC(=O)[C@H](CO)NC(=O)[C@H](Cc1ccc(O)cc1)NC(=O)[C@H](CC(=O)O)NC(=O)[C@H](CO)NC(=O)[C@@H](NC(=O)[C@H](Cc1ccccc1)NC(=O)[C@@H](NC(=O)CNC(=O)[C@H](CCC(=O)O)NC(=O)C(C)(C)NC(=O)[C@@H](N)Cc1ccc(O)cc1)[C@@H](C)O)[C@@H](C)O)[C@@H](C)CC)C(C)C)C(=O)N[C@@H](CC(N)=O)C(=O)N[C@@H](CCCCNC(=O)[C@@H](N)CCCCNC(=O)CC[C@H](NC(=O)CC[C@H](NC(=O)CC[C@H](NC(=O)CC[C@H](NC(=O)CC[C@H](NC(=O)CC[C@H](NC(=O)CCCCCCCCCCCCCCCCC(=O)O)C(=O)O)C(=O)O)C(=O)O)C(=O)O)C(=O)O)C(=O)O)C(=O)NC(C)(C)C(=O)N[C@H](C(=O)N[C@@H](CCCNC(=N)N)C(=O)N[C@@H](CCC(N)=O)C(=O)N[C@@H](CCCNC(=N)N)C(=O)N[C@@H](Cc1ccc(O)cc1)C(N)=O)[C@@H](C)O [Compound 6, Y-Aib-E-G-T-F-T-S-D-Y-S-I-Aib-L-E-N-Q-A-Q-Aib-A-F-V-R-H-L-I-N-K(1,3)-Aib-T-R-Q-R-Y-NH2.C18DA-gGlu-gGlu-gGlu-gGlu-gGlu-gGlu-eLys(1,2)]	700	8900		
CC[C@H](C)[C@H](NC(=O)[C@H](CC(C)C)NC(=O)[C@H](Cc1c[nH]cn1)NC(=O)[C@H](CCCNC(=N)N)NC(=O)[C@@H](NC(=O)[C@H](Cc1ccccc1)NC(=O)[C@H](C)NC(=O)C(C)(C)NC(=O)[C@H](CCC(N)=O)NC(=O)[C@H](C)NC(=O)[C@H](CCC(N)=O)NC(=O)[C@H](CCCCN)NC(=O)[C@H](CCC(=O)O)NC(=O)[C@H](CC(C)C)NC(=O)C(C)(C)NC(=O)[C@@H](NC(=O)[C@H](CO)NC(=O)[C@H](Cc1ccc(O)cc1)NC(=O)[C@H](CC(=O)O)NC(=O)[C@H](CO)NC(=O)[C@@H](NC(=O)[C@H](Cc1ccccc1)NC(=O)[C@@H](NC(=O)CNC(=O)[C@H](CCC(=O)O)NC(=O)C(C)(C)NC(=O)[C@@H](N)Cc1ccc(O)cc1)[C@@H](C)O)[C@@H](C)O)[C@@H](C)CC)C(C)C)C(=O)N[C@@H](CC(N)=O)C(=O)N[C@@H](CCCCNC(=O)[C@@H](N)CCCCNC(=O)[C@@H](N)CCCCNC(=O)CC[C@H](NC(=O)CC[C@H](NC(=O)CC[C@H](NC(=O)CC[C@H](NC(=O)CC[C@H](NC(=O)CC[C@H](NC(=O)CCCCCCCCCCCCCCCCC(=O)O)C(=O)O)C(=O)O)C(=O)O)C(=O)O)C(=O)O)C(=O)O)C(=O)NC(C)(C)C(=O)N[C@H](C(=O)N[C@@H](CCCNC(=N)N)C(=O)N[C@@H](CCC(N)=O)C(=O)N[C@@H](CCCNC(=N)N)C(=O)N[C@@H](Cc1ccc(O)cc1)C(N)=O)[C@@H](C)O [Compound 11, Y-Aib-E-G-T-F-T-S-D-Y-S-I-Aib-L-E-K-Q-A-Q-Aib-A-F-V-R-H-L-I-N-K(1,3)-Aib-T-R-Q-R-Y-NH2.C18DA-gGlu-gGlu-gGlu-gGlu-gGlu-gGlu-eLys-eLys(1,2)]	300	800	8000	
CC[C@H](C)[C@H](NC(=O)[C@H](CC(C)C)NC(=O)[C@H](Cc1c[nH]cn1)NC(=O)[C@H](CCCNC(=N)N)NC(=O)[C@@H](NC(=O)[C@H](Cc1ccccc1)NC(=O)[C@H](C)NC(=O)C(C)(C)NC(=O)[C@H](CCC(N)=O)NC(=O)[C@H](C)NC(=O)[C@H](CCC(N)=O)NC(=O)[C@H](CCCCN)NC(=O)[C@H](CCC(=O)O)NC(=O)[C@H](CC(C)C)NC(=O)C(C)(C)NC(=O)[C@@H](NC(=O)[C@H](CO)NC(=O)[C@H](Cc1ccc(O)cc1)NC(=O)[C@H](CC(=O)O)NC(=O)[C@H](CO)NC(=O)[C@@H](NC(=O)[C@H](Cc1ccccc1)NC(=O)[C@@H](NC(=O)CNC(=O)[C@H](CCC(=O)O)NC(=O)C(C)(C)NC(=O)[C@@H](N)Cc1ccc(O)cc1)[C@@H](C)O)[C@@H](C)O)[C@@H](C)CC)C(C)C)C(=O)N[C@@H](CC(N)=O)C(=O)N[C@@H](CCCCNC(=O)[C@@H](N)CCCCNC(=O)CC[C@H](NC(=O)CC[C@H](NC(=O)CC[C@H](NC(=O)CC[C@H](NC(=O)CC[C@H](NC(=O)CC[C@H](NC(=O)CCCCCCCCCCCCCCCCC(=O)O)C(=O)O)C(=O)O)C(=O)O)C(=O)O)C(=O)O)C(=O)O)C(=O)NC(C)(C)C(=O)N[C@H](C(=O)N[C@@H](CCCNC(=N)N)C(=O)N(C)[C@@H](CCC(N)=O)C(=O)N[C@@H](CCCNC(=N)N)C(=O)N[C@@H](Cc1ccc(O)cc1)C(N)=O)[C@@H](C)O [Compound 17, Y-Aib-E-G-T-F-T-S-D-Y-S-I-Aib-L-E-K-Q-A-Q-Aib-A-F-V-R-H-L-I-N-K(1,3)-Aib-T-R-NMeQ-R-Y-NH2.C18DA-gGlu-gGlu-gGlu-gGlu-gGlu-gGlu-eLys(1,2)]	200	4000	2000	
CC[C@H](C)[C@H](NC(=O)[C@H](CC(C)C)NC(=O)[C@H](Cc1c[nH]cn1)NC(=O)[C@H](CCCNC(=N)N)NC(=O)[C@@H](NC(=O)[C@H](Cc1ccccc1)NC(=O)[C@H](C)NC(=O)C(C)(C)NC(=O)[C@H](CCC(N)=O)NC(=O)[C@H](C)NC(=O)[C@H](CCC(N)=O)NC(=O)[C@H](CCCCN)NC(=O)[C@H](CCC(=O)O)NC(=O)[C@H](CC(C)C)NC(=O)C(C)(C)NC(=O)[C@@H](NC(=O)[C@H](CO)NC(=O)[C@H](Cc1ccc(O)cc1)NC(=O)[C@H](CC(=O)O)NC(=O)[C@H](CO)NC(=O)[C@@H](NC(=O)[C@H](Cc1ccccc1)NC(=O)[C@@H](NC(=O)CNC(=O)[C@H](CCC(=O)O)NC(=O)C(C)(C)NC(=O)[C@@H](N)Cc1ccc(O)cc1)[C@@H](C)O)[C@@H](C)O)[C@@H](C)CC)C(C)C)C(=O)N[C@@H](CC(N)=O)C(=O)N[C@@H](CCCCNC(=O)[C@@H](N)CCCCNC(=O)CC[C@H](NC(=O)CC[C@H](NC(=O)CC[C@H](NC(=O)CC[C@H](NC(=O)CC[C@H](NC(=O)CC[C@H](NC(=O)CCCCCCCCCCCCCCCCCCC(=O)O)C(=O)O)C(=O)O)C(=O)O)C(=O)O)C(=O)O)C(=O)O)C(=O)NC(C)(C)C(=O)N[C@H](C(=O)N[C@@H](CCCNC(=N)N)C(=O)N(C)[C@@H](CCC(N)=O)C(=O)N[C@@H](CCCNC(=N)N)C(=O)N[C@@H](Cc1ccc(O)cc1)C(N)=O)[C@@H](C)O [Compound 26, Y-Aib-E-G-T-F-T-S-D-Y-S-I-Aib-L-E-K-Q-A-Q-Aib-A-F-V-R-H-L-I-N-K(1,3)-Aib-T-R-NMeQ-R-Y-NH2.C20DA-gGlu-gGlu-gGlu-gGlu-gGlu-gGlu-eLys(1,2)]	300		5600	9400
CC[C@H](C)[C@H](NC(=O)[C@H](CC(C)C)NC(=O)[C@H](Cc1c[nH]cn1)NC(=O)[C@H](CCCNC(=N)N)NC(=O)[C@@H](NC(=O)[C@H](Cc1ccccc1)NC(=O)[C@H](C)NC(=O)C(C)(C)NC(=O)[C@H](CCC(N)=O)NC(=O)[C@H](C)NC(=O)[C@H](CCC(N)=O)NC(=O)[C@H](CCCCN)NC(=O)[C@H](CCC(=O)O)NC(=O)[C@H](CC(C)C)NC(=O)C(C)(C)NC(=O)[C@@H](NC(=O)[C@H](CO)NC(=O)[C@H](Cc1ccc(O)cc1)NC(=O)[C@H](CC(=O)O)NC(=O)[C@H](CO)NC(=O)[C@@H](NC(=O)[C@H](Cc1ccccc1)NC(=O)[C@@H](NC(=O)CNC(=O)[C@H](CCC(=O)O)NC(=O)C(C)(C)NC(=O)[C@@H](N)Cc1ccc(O)cc1)[C@@H](C)O)[C@@H](C)O)[C@@H](C)CC)C(C)C)C(=O)N[C@@H](CC(N)=O)C(=O)N[C@@H](CCCCNC(=O)[C@@H](N)CCCCNC(=O)CC[C@H](NC(=O)CC[C@H](NC(=O)CC[C@H](NC(=O)CC[C@H](NC(=O)CC[C@H](NC(=O)CC[C@H](NC(=O)CCCCCCCCCCCCCCCCCCC(=O)O)C(=O)O)C(=O)O)C(=O)O)C(=O)O)C(=O)O)C(=O)O)C(=O)N[C@@H](CC(C)C)C(=O)N[C@H](C(=O)N[C@@H](CCCNC(=N)N)C(=O)N[C@@H](CCC(N)=O)C(=O)N[C@@H](CCCNC(=N)N)C(=O)N[C@@H](Cc1ccc(O)cc1)C(N)=O)[C@@H](C)O [Compound 27, Y-Aib-E-G-T-F-T-S-D-Y-S-I-Aib-L-E-K-Q-A-Q-Aib-A-F-V-R-H-L-I-N-K(1,3)-L-T-R-Q-R-Y-NH2.C20DA-gGlu-gGlu-gGlu-gGlu-gGlu-gGlu-eLys(1,2)]	600	10000		
